Results taken from patent US20200315933A1, “USE OF CANNABIDIOL OR CANNABIS EXTRACT IN PREPARATION OF SKIN WHITENING PRODUCTS” (HANYI BIO-TECHNOLOGY COMPANY LTD., priority 2017, published 2020).

How the values were obtained:
Type in all cases: cell-based
[1] = target: T1, tyrosinase (Mus musculus, UniProt P11344); assay: Determination of tyrosinase inhibition rate in B16 cells; settings: action of 72 hours, inhibition rate increased with amount
T1 construct: endogenous in cells; host or cells: B16 cells
T1 sequence (P11344 19-533): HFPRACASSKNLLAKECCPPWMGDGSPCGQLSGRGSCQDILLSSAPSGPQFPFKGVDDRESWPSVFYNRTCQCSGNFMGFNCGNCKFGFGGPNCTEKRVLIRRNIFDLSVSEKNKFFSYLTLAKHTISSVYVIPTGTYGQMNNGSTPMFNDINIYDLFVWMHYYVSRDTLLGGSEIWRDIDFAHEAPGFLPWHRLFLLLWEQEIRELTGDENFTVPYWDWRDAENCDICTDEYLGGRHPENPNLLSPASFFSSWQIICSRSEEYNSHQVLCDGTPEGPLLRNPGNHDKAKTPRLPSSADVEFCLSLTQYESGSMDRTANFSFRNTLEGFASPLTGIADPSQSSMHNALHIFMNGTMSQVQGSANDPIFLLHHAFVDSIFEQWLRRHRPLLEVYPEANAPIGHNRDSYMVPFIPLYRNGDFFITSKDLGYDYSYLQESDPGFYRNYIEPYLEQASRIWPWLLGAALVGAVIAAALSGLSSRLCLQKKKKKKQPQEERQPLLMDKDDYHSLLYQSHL
Procedure: B16 cells at a logarithmic phase were collected, trypsin was adopted for digestion, the digestion was terminated with a complete medium (DMEM high sugar medium+10% fetal calf serum), counting was performed; the cell suspension was adjusted to 10×10^4 cells/mL, and inoculated into a 96-well culture plate, each well was added with 100 μl of cell suspension, the marginal wells were filled with sterile PBS, and cultivated in an incubator at 37° C. and with 5% CO2 overnight, the medium (DMEM high sugar medium+10% fetal calf serum) was drawn out, 100 μl of the experiment sample was added into each well, and a control group (namely, the well without the sample but with only medium) was set. After action of 72 hours, 50 μl of 1% TritionX-100 solution was added for cell lysis, quickly put into an ultra-low temperature freezer at −80° C. and cryopreserved for one hour, subsequently the cryopreserved solution was thawed at room temperature, such that tyrosinase within the cells were released outside the cells, pre-warming was performed to 37° C., then 50 μl of 1% levodopa solution was added to produce a mixture, the mixture was reacted at 37° C. for 2 hours, the absorbance value in each well was determined at the wavelength of 490 nm, for every sample concentration, more than 3 subwells were set, and averaged. […]

[2] = test system: human immortalized epidermal cells; assay: Cytotoxicity test (MTT) of human immortalized epidermal cells; settings: samples containing cannabis seed oil
Procedure: Human immortalized epidermal cells at a logarithmic phase were collected, the concentration of the cell suspension was adjusted, the cell suspension was added to a 96-well plate at 100 μl per well, incubation was performed at 37° C. and with 5% CO2 to reach a cell density of 5000 cells/well. The solution was changed and the experimental samples at different concentration gradients were added (as the following Table 4), a culture solution containing no experiment sample was used as the control. Incubation was performed with 5% CO2 and at 37° C. for 24 hours, 20 μl of MTT solution (5 mg/ml, i.e. 0.5% MTT) was added into each well, the cultivation was continued for four hours. The drug reacted with MTT sufficiently, firstly centrifugation was performed, then the culture solution was abandoned, and rinsing was performed with PBS carefully for 2-3 times, then a culture solution containing MTT was added. The cultivation was terminated, the culture solution in the well were drawn off carefully. […] The absorbance values of each well were measured in an enzyme linked immunosorbent detector at OD value of 490 nm.
Cell survival rate=(determined well OD value−blank control OD value)/(OD value in the cell comparative group−OD value in the blank control)×100%.

[3] = test system: B16 cells; assay: Determination of melanin content in B16 cells; settings: positive control 33 mM
Procedure: B16 cells in good state at a logarithmic phase were collected, trypsin was adopted for digestion, the digestion was terminated with a complete medium, and counting was performed; the prepared cell suspension was adjusted to 5×10^4 cells/ml and added into a 6-well culture plate, 2 ml of cell suspension was added into each well, cultivation was performed in an incubator at 37° C. and with 5% CO2 overnight; the medium was drawn out, 2 ml of cannabis extracts with different concentrations were added into each well, after action of 48 hours, the medium was drawn out and abandoned, trypsin was adopted for digestion, and the product was collected into a centrifugal tube, centrifugation was performed to obtain a cell precipitate, the cell precipitate was washed with PBS for one time, a 1M NaOH (containing 10% DMSO) solution was added for cell lysis, and the lysed cells were put in a 80° C. water bath kettle for water bath for 30 minutes; uniform shaking and mixing were performed, and the processed cells were drawn into to a 96-well plate; and the absorbance value was determined at the wavelength of 245 nm.
Relative melanin content=(mean absorbance value in each well under every concentration−mean absorbance value in the control group)[…].

SMILES | inhibitory effect against tyrosinase (inhibition rate) [1] | cell proliferation (eliminating the influence of the cannabis seed oil) [2] | melanin content within the B16 cells [3]
C=C(C)[C@@H]1CCC(C)=C[C@H]1c1c(O)cc(CCCCC)cc1O [CBD, Cannabidiol] | effective inhibitory effect against tyrosinase | promote cell proliferation to a certain extent | 
OC[C@H]1O[C@@H](Oc2ccc(O)cc2)[C@H](O)[C@@H](O)[C@@H]1O [arbutin, Arbutin] |  |  | 79.24%
